Measurements as given in ChEMBL document CHEMBL5150025, “Exploratory study of oxatomide derivatives with high P2X7 receptor inhibitory activity” (Bioorg Med Chem Lett, 2022).
pIC50: −log10 of the molar value.

What was measured:
P2X purinoceptor 7 = molecular target: T1, P2X purinoceptor 7 (Homo sapiens, UniProt Q99572); test: Antagonist activity at P2X7 receptor in human RPMI-8226 cells assessed as inhibition of ATP-induced Ca2+ influx by fura-2 staining based assay; assay type: cell-based
T1 sequence (Q99572 whole entry): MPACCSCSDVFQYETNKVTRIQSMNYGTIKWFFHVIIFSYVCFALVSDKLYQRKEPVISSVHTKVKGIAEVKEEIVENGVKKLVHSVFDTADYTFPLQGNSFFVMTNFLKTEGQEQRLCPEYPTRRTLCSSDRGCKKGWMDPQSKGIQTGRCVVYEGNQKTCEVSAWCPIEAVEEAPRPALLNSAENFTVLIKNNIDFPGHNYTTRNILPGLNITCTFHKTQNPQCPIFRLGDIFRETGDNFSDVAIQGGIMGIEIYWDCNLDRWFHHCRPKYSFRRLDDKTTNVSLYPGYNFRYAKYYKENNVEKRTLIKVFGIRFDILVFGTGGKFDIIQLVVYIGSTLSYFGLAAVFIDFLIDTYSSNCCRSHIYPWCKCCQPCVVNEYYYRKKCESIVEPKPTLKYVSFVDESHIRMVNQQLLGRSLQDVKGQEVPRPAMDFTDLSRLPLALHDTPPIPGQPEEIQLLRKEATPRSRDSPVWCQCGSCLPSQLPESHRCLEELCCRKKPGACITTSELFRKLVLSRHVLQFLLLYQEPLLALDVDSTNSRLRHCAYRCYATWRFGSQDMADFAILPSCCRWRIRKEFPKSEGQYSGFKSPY

[1] = molecular target: T2, P2X purinoceptor 7 (Homo sapiens) (UniProt Q99572); test: Antagonist activity at P2X7 receptor in human RPMI-8226 cells assessed as inhibition of ATP-induced Ca2+ influx at 10 uM by fura-2 staining based assay relative to control; assay type: cell-based; conditions: filed as antagonist
T2 sequence (whole entry): T1 sequence (Q99572 whole entry)

Cc1ccc2ccn(CCCCN3CCN(C(c4ccccc4)c4ccccc4)CC3)c2c1
pIC50 (P2X purinoceptor 7): 5.19

Cc1nnnn1CCCCN1CCN(C(c2ccccc2)c2ccccc2)CC1
pIC50 (P2X purinoceptor 7): 5.35

N#Cc1cn(CCCCN2CCN(C(c3ccccc3)c3ccccc3)CC2)c2ccccc12
pIC50 (P2X purinoceptor 7): 5.82

O=c1[nH]c2ccccc2n1CCCN1CCN(C2c3ccccc3CCc3ccccc32)CC1
pIC50 (P2X purinoceptor 7): 5.28

c1ccc(C(c2ccccc2)N2CCN(CCCCn3ccc4ncccc43)CC2)cc1
pIC50 (P2X purinoceptor 7): 6.49

O=c1[nH]c2ccccc2n1CCCN1CCC(=C(c2ccccc2)c2ccccc2)CC1
pIC50 (P2X purinoceptor 7): 5.62

O=c1[nH]c2ccccc2n1CCCN1CCN(S(=O)(=O)c2ccc([N+](=O)[O-])cc2)CC1
inhibition [1]: 72% | pIC50 (P2X purinoceptor 7): < 5.00

O=c1[nH]c2ccccc2n1CCCN1CCC(C(O)(c2ccccc2)c2ccccc2)CC1
pIC50 (P2X purinoceptor 7): 5.12

N#Cc1ccc2c(ccn2CCCCN2CCN(C(c3ccccc3)c3ccccc3)CC2)c1
pIC50 (P2X purinoceptor 7): 5.42

Fc1cc2ccn(CCCCN3CCN(C(c4ccccc4)c4ccccc4)CC3)c2cc1F
pIC50 (P2X purinoceptor 7): 6.89

Fc1cccc2c1ccn2CCCCN1CCN(C(c2ccccc2)c2ccccc2)CC1
pIC50 (P2X purinoceptor 7): 6.82

c1ccc(C(c2ccccc2)N2CCN(CCCCn3ccc4cccnc43)CC2)cc1
pIC50 (P2X purinoceptor 7): 6.74

c1ccc(C(c2ccccc2)N2CCN(CCCCn3ccc4ccncc43)CC2)cc1
pIC50 (P2X purinoceptor 7): 6.62

Cc1cccc2ccn(CCCCN3CCN(C(c4ccccc4)c4ccccc4)CC3)c12
pIC50 (P2X purinoceptor 7): 5.64

c1ccc(-c2nnnn2CCCCN2CCN(C(c3ccccc3)c3ccccc3)CC2)cc1
pIC50 (P2X purinoceptor 7): 5.49

O=c1[nH]c2ccccc2n1CCCCN1CCN(C(c2ccccc2)c2ccccc2)CC1
pIC50 (P2X purinoceptor 7): 6.74

COc1ccc2c(ccn2CCCCN2CCN(C(c3ccccc3)c3ccccc3)CC2)c1
inhibition [1]: 54% | pIC50 (P2X purinoceptor 7): < 5.00

Cc1ccc(S(=O)(=O)N2CCN(CCCn3c(=O)[nH]c4ccccc43)CC2)cc1
inhibition [1]: 64% | pIC50 (P2X purinoceptor 7): < 5.00

c1ccc(-c2nc3ccccc3n2CCCCN2CCN(C(c3ccccc3)c3ccccc3)CC2)cc1
pIC50 (P2X purinoceptor 7): 5.92

c1ccc(C(c2ccccc2)N2CCN(CCCCn3ncc4ccccc43)CC2)cc1
pIC50 (P2X purinoceptor 7): 6.72

Cc1cccc2c1ccn2CCCCN1CCN(C(c2ccccc2)c2ccccc2)CC1
pIC50 (P2X purinoceptor 7): 5.28

Cc1nc2ccccc2n1CCCCN1CCN(C(c2ccccc2)c2ccccc2)CC1
pIC50 (P2X purinoceptor 7): 6.07

Cc1cc2ncn(CCCCN3CCN(C(c4ccccc4)c4ccccc4)CC3)c2cc1C
pIC50 (P2X purinoceptor 7): 6.11

O=c1[nH]c2ccccc2n1CCCN1CCN(S(=O)(=O)c2ccc(F)cc2)CC1
inhibition [1]: 87% | pIC50 (P2X purinoceptor 7): < 5.00

c1ccc(C(c2ccccc2)N2CCN(CCCCn3ccc4cnccc43)CC2)cc1
pIC50 (P2X purinoceptor 7): 6.34

Fc1ccc2ccn(CCCCN3CCN(C(c4ccccc4)c4ccccc4)CC3)c2c1
pIC50 (P2X purinoceptor 7): 6.96

O=c1[nH]c2ccccc2n1CCCN1CCN(C(c2ccccc2)c2ccccc2)CC1 [OXATOMIDE]
pIC50 (P2X purinoceptor 7): 6.08

c1ccc(C(c2ccccc2)N2CCN(CCCCn3ccc4ccccc43)CC2)cc1
pIC50 (P2X purinoceptor 7): 6.92

c1ccc(C(c2ccccc2)N2CCN(CCCCn3cnc4ccccc43)CC2)cc1
pIC50 (P2X purinoceptor 7): 6.74

Fc1ccc2c(ccn2CCCCN2CCN(C(c3ccccc3)c3ccccc3)CC2)c1
pIC50 (P2X purinoceptor 7): 6.92

c1ccc(C(c2ccccc2)N2CCN(CCCCn3nnc4ccccc43)CC2)cc1
pIC50 (P2X purinoceptor 7): 6.32

Cc1nccn1CCCCN1CCN(C(c2ccccc2)c2ccccc2)CC1
pIC50 (P2X purinoceptor 7): 5.47

O=c1[nH]c2ccccc2n1CCCCCN1CCN(C(c2ccccc2)c2ccccc2)CC1
pIC50 (P2X purinoceptor 7): 6.25

O=c1[nH]c2ccccc2n1C/C=C/CN1CCN(C(c2ccccc2)c2ccccc2)CC1
inhibition [1]: 81% | pIC50 (P2X purinoceptor 7): < 5.00

O=c1[nH]c2ccccc2n1CCN1CCN(C(c2ccccc2)c2ccccc2)CC1
pIC50 (P2X purinoceptor 7): 6.02

c1ccc(C(c2ccccc2)N2CCN(CCCCn3cncn3)CC2)cc1
inhibition [1]: 87% | pIC50 (P2X purinoceptor 7): < 5.00

O=C(C(c1ccccc1)c1ccccc1)N1CCN(CCCn2c(=O)[nH]c3ccccc32)CC1
pIC50 (P2X purinoceptor 7): 5.11

COC(=O)c1cccc2ccn(CCCCN3CCN(C(c4ccccc4)c4ccccc4)CC3)c12
pIC50 (P2X purinoceptor 7): < 5.00
